{"source": "patent US12269821B2", "about": "“Discovery of novel first in class nature-inspired compounds targeting the mitochondrial function and pharmaceutical composition thereof” (University of Sharjah, priority 2018, dated 2025)", "key": {"B220+ B lymphocytes": {"system": "B220+ B lymphocytes", "experiment": "Activation induced proliferation of lymphocytes (PMA/Ionomycin), Cytopainter flow cytometry, B cells", "format": "cell-based, C57BL/6J mice", "conditions": "stimulation with PMA/Ionomycin; for division index of B-cells: FIG. 2c; for expansion index of B-cells: FIG. 2d", "procedure": "(§1) Spleen and lymph nodes were collected from C57BL/6J mice and stored in RPMI medium on ice until further processing. Further procedures were performed using a laminar flow hood. Single cell suspensions were created by shearing the organs between two microscopy slides. Cell suspensions were passed through a 70 μm cell strainer to exclude remaining tissue chunks. Cells were washed in PBS and centrifuged at 300 g for 5 min at 4° C. During the preparation of splenic single cell suspension, erythrocytes were removed by incubating the cells for 5 min at rt in RBC lysis buffer followed by extensive washing in PBS. Cells were resuspended in RPMI medium and cell count was determined. Lymphocytes were kept on ice until further use.\n(§2) A total 17×10^6 cells were suspended in 15 mL Krebs Ringer buffer (with HEPES, 1 g L^−1 glucose, 1 mM pyruvate), supplemented with 30 μL of Cytopainter blue stock solution (500×) (#ab176726, Abcam) and incubated for 30 min at 37° C. to let the CFSE analog accumulate in the cells. The remaining Cytopainter reagent that was not incorporated into the cells was quenched by addition of 10 mL FCS and incubated for 5 min at rt. Another 25 mL of PBS were added and cells were centrifuged at 300 g for 5 min at rt. The cells were then suspended in 12.75 mL of complete RPMI culture medium. 2×10^5 cells in a volume of 150 μL were added to the wells of 96 well plates. The cytopainter-loaded cells were supplemented with the test substances, or DMSO as a negative control and oligomycin as a positive control.\n(§3) Cytopainter loaded lymphocytes were stimulated with PMA (15 ng mL^−1) and Ionomycin (0.5 μg mL^−1). All cells were incubated for 60 h at 37° C., 5% CO2. Lymphocytes were then washed with 2% FBS in PBS, supplemented with anti-CD16/CD32 antibodies (to block unspecific Fc-receptor binding) and incubated for 10 min at 4° C. Subsequently cells were incubated for 20 min at 4° C. with anti-CD3 antibodies conjugated to FITC (clone: 145-2C11, #11-0031-82, eBioscience) and anti-B220 antibodies conjugated to PerCP-Cy5.5 (clone:RA3-6B2, #45-0452-82, eBioscience) to label T cells and B cells, respectively. Cells were subsequently washed with 2% FBS in PBS analyzed.\n(§4) Cell proliferation was then analyzed by assessing the fluorescence intensity of cytopainter in the cells by flow cytometry. Reduced intensity of cytopainter dye indicates cells that have undergone cell division. Data was analyzed using FlowJo v10.4.2. Proliferation parameters were derived using the FlowJo Proliferation Tool. The Expansion index determines the fold-expansion of the overall culture. The Division index expresses the average number of cell divisions that a cell in the original population has undergone and also includes the cells that have never divided."}, "Hepa1-6 cell line [1]": {"system": "Hepa1-6 cell line", "experiment": "BrdU incorporation/cell proliferation assay", "format": "cell-based", "conditions": "for suppression of cells proliferation: Hepa1-6, exposure 48 h, FIG. 1d", "procedure": "(§5) The tested compounds were dissolved in DMSO at a concentration of 100 mM and further diluted in PBS supplemented with 10% (v/v) DMSO. When necessary dissolution was enhanced by incubation at 50° C. and sonication at maximum output for 10 min. Hepa1.6 cell line (#CRL-1830, ATCC) was cultured in DMEM culture medium containing 1 g L^−1 glucose, 10% fetal bovine serum, 2 mM glutamine, 100 U mL^−1 Penicillin and 100 μg mL^−1 Streptomycin and 30 μM oleic acid. Cells were seeded at a density of 20000 cells per well in 96 well plates and incubated for several hours to allow the cells to attach at 37° C. with 5% CO2. Cells were then supplemented with the test substances at indicated concentrations (0.01-50 μM) and incubated for indicated time periods (24-48 h).\n(§6) For all assays the tested substances were further diluted in 10% DMSO/PBS and added to the cells at the indicated concentrations with a final DMSO concentration of 0.01%. Negative vehicle controls were treated with 0.01% DMSO. Positive control was treated with 10 μM oligomycin or 10 μM FCCP (Carbonyl cyanide-4-(trifluoromethoxy) phenylhydrazone).\nCells were incubated for a total of 48 h with the tested substances. During the last 12 h the cells were supplemented with 200 μM BrdU (#ab126556, Abcam). After the incubation period cells were washed with PBS. Following that the cells fixed and permeabilized using the reagents of the kit and labeled for 1 h with anti-BrdU antibodies conjugated with peroxidase. After washing the fixed cells 5 times with PBS the wells were incubated with peroxidase substrate TMB. The reaction was stopped after 30 min. The signal intensity was measure at absorbance 450 nm. Results were normalized to controls samples treated with vehicle (0.01% DMSO, negative control) or 10 μM oligomycin."}, "Hepa1-6 cell line [2]": {"system": "Hepa1-6 cell line", "experiment": "Cellular redox potential (AlamarBlue)", "format": "cell-based", "conditions": "Hepa1-6, 24 h, FIG. 1c", "procedure": "as §5, §6\nCells were treated for 24 h with the test substances or controls ([…] DMSO, 10 μM FCCP and 10 μM oligomycin). […] Fluorescence was measured at ex/em: 550/590 nm. […]"}, "Hepa1-6 cell line [3]": {"system": "Hepa1-6 cell line", "experiment": "Mitochondrial membrane potential (ΔΨm), TMRE fluorophore", "format": "cell-based", "conditions": "FIG. 1b; for reduce ΔΨm: Hepa1-6, exposure 24 h; for Emax at 1 µM: Mus musculus, Hepa1-6, concentration of 1 μM, read-out: decrease of normalized ΔΨm, maximum response", "procedure": "as §5, §6\nMitochondrial membrane potential (ΔΨm) was assessed using the tetramethylrhodamine (TMRE) fluorophore. The cells were incubated with the test substances for 24 h and then loaded with TMRE at a final concentration of 200 nM for 45 min at 37° C. Positive control wells were treated with 10 μM FCCP 30 min before loading the cells with TMRE. The medium was removed and the cells were washed with PBS and supplemented with fresh culture medium. Fluorescence intensity of TRME was immediately measured (ex/em: 545/580 nm) using a plate reader spectrophotometer. The results were normalized to the fluorescence intensity measured in mock treated negative controls and the positive controls treated with 10 μM FCCP."}, "isolated T cells": {"system": "isolated T cells", "experiment": "Activation induced proliferation of isolated T cells, Cytopainter flow cytometry", "format": "cell-based, C57BL/6J mice", "conditions": "2f", "procedure": "as §1\nT cell was enriched from the splenocytes by negative selection using magnetic bead separation (Pan T cell isolation kit II, mouse, #130-095-130, Miltenyi) achieving more than 90% purity. The cells were kept in RPMI medium until further use.\nas §2\nCytopainter loaded T cells were stimulated using two different approaches. Either T cells stimulated by plate bound anti-CD3 antibodies (coated at 1 μg/mL) and soluble anti-CD28 antibodies (at a final concentration of 0.2 μg mL^−1), or in separate replicates by addition of the cytokines IL-2 (50 ng mL^−1) and IL-7 (10 ng mL^−1) to stimulate T cells proliferation and survival.\nas §4"}, "CD3+ T lymphocytes": {"system": "CD3+ T lymphocytes", "experiment": "Activation induced proliferation of lymphocytes (PMA/Ionomycin), Cytopainter flow cytometry, T cells", "format": "cell-based, C57BL/6J mice", "conditions": "stimulation with PMA/Ionomycin; for division index of T-cells: FIG. 2a; for expansion index of T-cells: FIG. 2b", "procedure": "as §1, §2, §3, §4"}, "Hepa1-6 cell line [4]": {"system": "Hepa1-6 cell line", "experiment": "Cytotoxicity (Pierce LDH Cytotoxicity Assay Kit)", "format": "cell-based", "conditions": "Hepa1-6, FIG. 1e", "procedure": "as §5, §6\nCytotoxicity was assessed using the Pierce LDH Cytotoxicity Assay Kit (#88953, Thermo Fisher). […] Absorbance was measure at 490 nm and background at 680 nm. […] Cytotoxicity was expressed as the percentage of maximum signal intensity observed in freshly lysed cells."}, "Hepa1-6 cell line [5]": {"system": "Hepa1-6 cell line", "experiment": "Cellular ATP content (CellTiter-Glo Assay)", "format": "cell-based", "conditions": "Hepa1-6, exposure 24 h, FIG. 1a", "procedure": "as §5\nFor all assays the tested substances were further diluted in 10% DMSO/PBS and added to the cells at the indicated concentrations with a final DMSO concentration of 0.01%. […]\nCells were treated for 24 h with the test substances at the indicated concentrations. The cellular ATP content was assessed using the CellTiter-Glo Assay (#G7571, Promega) as per the manufacturer's instructions. Luminescence was detected in a plate reader spectrophotometer. The results were normalized to the luminescence intensity measured in mock treated negative controls and the positive controls treated with 10 μM oligomycin."}, "[6]": {"conditions": "stimulation with anti-CD3/CD28 antibodies, FIGS. 2e"}, "[7]": {"conditions": "stimulation with cytokines IL-2/IL-7, FIGS. 2e"}}, "note": "“Also recorded” adds a separate entry of the source.", "data": [{"smiles": "C[C@]12CCC(=O)C[C@H]1N1CCc3c([nH]c4ccccc34)[C@@H]1CO2", "note": "[1q, (2aS,6aR,14bR)-2a-Methyl-3,4,6,6a,8,9,14,14b-octahydro-1H-benzo[5′,6′][1,4]oxazino[4′,3′:1,2]pyrido[3,4-k]indol-5(2aH)-one]", "values": [{"measurement": "division index of B-cells", "setting": "B220+ B lymphocytes", "value": "non-significant effects"}, {"measurement": "expansion index of B-cells", "setting": "B220+ B lymphocytes", "value": "non-significant effects"}, {"measurement": "suppression of cells proliferation", "setting": "Hepa1-6 cell line [1]", "value": "potent suppression"}, {"measurement": "effect on redox potential", "setting": "Hepa1-6 cell line [2]", "value": "increase; also recorded: strongly affected"}, {"measurement": "reduce ΔΨm", "setting": "Hepa1-6 cell line [3]", "value": 77, "unit": "%"}, {"measurement": "Emax at 1 µM", "setting": "Hepa1-6 cell line [3]", "value": 90, "unit": "%"}, {"measurement": "activation-induced proliferation of isolated T-cells", "setting": "isolated T cells; [6]", "value": "did not significantly affect"}, {"measurement": "activation-induced proliferation of isolated T-cells", "setting": "isolated T cells; [7]", "value": "did not significantly affect"}, {"measurement": "division index of T-cells", "setting": "CD3+ T lymphocytes", "value": "non-significant effects"}, {"measurement": "expansion index of T-cells", "setting": "CD3+ T lymphocytes", "value": "non-significant effects"}, {"measurement": "cytotoxic necrosis", "setting": "Hepa1-6 cell line [4]", "value": "without noticeable cytotoxic necrosis"}, {"measurement": "deplete ATP production", "setting": "Hepa1-6 cell line [5]", "value": "≤ 50", "unit": "%"}]}, {"smiles": "C[C@]12C=CC(=O)C[C@H]1N1CCc3c([nH]c4ccccc34)[C@@H]1CO2", "note": "[compound 1d, (2aS,6aR,14bR)-2a-Methyl-6,6a,8,9,14,14b-hexahydro-1H-benzo[5′,6′][1,4]oxazino[4′,3′:1,2]pyrido[3,4-b]indol-5(2 aH)-one]", "values": [{"measurement": "division index of B-cells", "setting": "B220+ B lymphocytes", "value": "non-significant effects"}, {"measurement": "expansion index of B-cells", "setting": "B220+ B lymphocytes", "value": "non-significant effects"}, {"measurement": "rank in diminishing the proliferation of Hepa1-6", "setting": "Hepa1-6 cell line [1]; Hepa1-6, 1d versus 1q", "value": "most potent"}, {"measurement": "suppression of cells proliferation", "setting": "Hepa1-6 cell line [1]", "value": "potent suppression"}, {"measurement": "effect on redox potential", "setting": "Hepa1-6 cell line [2]", "value": "increase; also recorded: strongly affected"}, {"measurement": "reduce ΔΨm", "setting": "Hepa1-6 cell line [3]", "value": 82, "unit": "%"}, {"measurement": "Emax at 1 µM", "setting": "Hepa1-6 cell line [3]", "value": 82, "unit": "%"}, {"measurement": "activation-induced proliferation of isolated T-cells", "setting": "isolated T cells; [6]", "value": "did not significantly affect"}, {"measurement": "activation-induced proliferation of isolated T-cells", "setting": "isolated T cells; [7]", "value": "did not significantly affect"}, {"measurement": "division index of T-cells", "setting": "CD3+ T lymphocytes", "value": "non-significant effects"}, {"measurement": "expansion index of T-cells", "setting": "CD3+ T lymphocytes", "value": "non-significant effects"}, {"measurement": "cytotoxic necrosis", "setting": "Hepa1-6 cell line [4]", "value": "without noticeable cytotoxic necrosis"}, {"measurement": "deplete ATP production", "setting": "Hepa1-6 cell line [5]", "value": "up to 60%"}]}]}
